{"source": "patent US7122523B2", "about": "“Methods for inhibiting tumor cell proliferation” (University of Southern California, priority 2001, dated 2006)", "experiment": "Test of effectiveness of AII fragments (test not specified)", "conditions": "repeated tests", "note": "“Also recorded” adds a separate entry of the source."}
{"substance": "Tyr-Ile-His-Pro-Phe (YIHPF) [AII(4-8)]", "values": [{"measurement": "effectiveness as active agent", "result": "not to be effective; also recorded: ineffective"}]}
